Experiments:
[1] = molecular target: T1, Alpha-1A adrenergic receptor (Homo sapiens) (UniProt P35348); experiment: Antagonist activity at alpha1A adrenergic receptor (unknown origin) assessed as inhibition of mobilization of internal calcium at 10 uM by FLIPR assay; format: functional
T1 sequence (whole entry): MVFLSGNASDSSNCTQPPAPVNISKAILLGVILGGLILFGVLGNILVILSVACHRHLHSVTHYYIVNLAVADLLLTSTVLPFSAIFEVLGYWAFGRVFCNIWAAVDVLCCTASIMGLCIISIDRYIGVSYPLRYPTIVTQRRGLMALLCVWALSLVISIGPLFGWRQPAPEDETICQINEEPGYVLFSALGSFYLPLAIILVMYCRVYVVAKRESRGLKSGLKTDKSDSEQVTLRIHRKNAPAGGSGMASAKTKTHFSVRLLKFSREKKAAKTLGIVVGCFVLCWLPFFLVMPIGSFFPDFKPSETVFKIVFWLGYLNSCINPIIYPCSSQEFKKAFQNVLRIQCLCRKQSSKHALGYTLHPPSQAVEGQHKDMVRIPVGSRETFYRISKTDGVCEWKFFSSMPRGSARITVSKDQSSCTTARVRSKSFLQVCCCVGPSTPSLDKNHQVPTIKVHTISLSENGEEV

[2] = molecular target: 5-hydroxytryptamine receptor 2A (Homo sapiens) (UniProt P28223); experiment: Antagonist activity at human 5-HT2A receptor assessed as inhibition of 5-HT-induced mobilization of internal calcium at 10 uM by FLIPR assay; format: functional
5-hydroxytryptamine receptor 2A (Homo sapiens), sequence (P28223 whole entry): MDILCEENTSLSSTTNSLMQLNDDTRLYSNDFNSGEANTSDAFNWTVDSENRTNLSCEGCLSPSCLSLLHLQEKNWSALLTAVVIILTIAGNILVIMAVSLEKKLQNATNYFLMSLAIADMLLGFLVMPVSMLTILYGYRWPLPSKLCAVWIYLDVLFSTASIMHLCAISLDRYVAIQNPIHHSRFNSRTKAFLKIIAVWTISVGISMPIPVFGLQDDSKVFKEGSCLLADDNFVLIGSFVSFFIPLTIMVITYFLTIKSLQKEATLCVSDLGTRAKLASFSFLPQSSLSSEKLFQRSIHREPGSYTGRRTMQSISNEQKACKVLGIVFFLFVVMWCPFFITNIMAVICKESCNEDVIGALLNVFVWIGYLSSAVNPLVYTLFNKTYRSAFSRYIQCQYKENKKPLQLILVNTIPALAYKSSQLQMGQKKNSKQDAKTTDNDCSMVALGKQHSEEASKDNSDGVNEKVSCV

Homo sapiens = species on record: Homo sapiens; experiment: Selectivity ratio of Ke for human 5-HT2A receptor to Ke for alpha1A adrenergic receptor (unknown origin)

Row | SMILES | Ke [1] [nM] | Ke [2] [nM] | Ratio Ke (Homo sapiens)
1 | C=CCOc1c(CC=C)cc2c3c1-c1cc4c(cc1CC3N(C)CC2)OCO4 (stereo unspecified) | > 3000 | 1370 | < 0.45
2 | COc1cc2c3c(c1OC)-c1cc4c(cc1C[C@@H]3N(C)CC2)OCO4 | 196 | 657 | 3.4
3 | COc1cc2c3c(c1OC)-c1cc4c(cc1CC3OCC2)OCO4 (stereo unspecified) | > 3000 | > 3000 | 
4 | C=CCOc1ccc2c3c1-c1cc4c(cc1CC3N(C)CC2)OCO4 (stereo unspecified) | 744 | 47 | 0.06
5 | COc1cc2c3c(c1OC)-c1cc4c(cc1C[C@H]3N(C)CC2)OCO4 | 70 | 946 | 13.5
6 | CN1CCc2ccc(O)c3c2C1Cc1cc2c(cc1-3)OCO2 (stereo unspecified) | 2950 | > 3000 | 
7 | C=CCc1cc2c3c(c1OCC1CC1)-c1cc4c(cc1CC3N(C)CC2)OCO4 (stereo unspecified) | > 3000 | 963 | < 0.32
8 | C=CCc1cc2c3c(c1OC)-c1cc4c(cc1CC3N(C)CC2)OCO4 (stereo unspecified) | 566 | 485 | 0.85
9 | C=CCc1cc2c3c(c1O)-c1cc4c(cc1CC3N(C)CC2)OCO4 (stereo unspecified) | > 3000 | > 3000 | 
10 | C=CCOc1c(OC)cc2c3c1-c1cc4c(cc1CC3OCC2)OCO4 (stereo unspecified) | > 3000 | > 3000 | 

From ChEMBL document CHEMBL3232860, “Evaluation of structural effects on 5-HT(2A) receptor antagonism by aporphines: identification of a new aporphine with 5-HT(2A) antagonist activity” (Bioorg Med Chem Lett, 2014)
